In patent publication US20070299079A1, “4-AMINO-PYRIDO[3,2-e]PYRAZINES, THEIR USE AS INHIBITORS OF PHOSPHODIESTERASE 10, AND PROCESSES FOR PREPARING THEM” (priority 2006, published 2007):
pIC50: −log10 of the molar value. Like-named read-outs stand apart in the source and are kept apart here.

Assays:
[1] = target: T1, PDE10 from rat striatum (Rattus norvegicus, UniProt Q9QYJ6); assay: Inhibition of PDE10 from rat striatum; format: biochemical
T1 construct: 0.5 g of the isolated and frozen striatum was homogenised; from tissue; host or cells: striatum of male Wistar rats, anion-exchange FPLC fractions
T1 sequence (Q9QYJ6 1-794): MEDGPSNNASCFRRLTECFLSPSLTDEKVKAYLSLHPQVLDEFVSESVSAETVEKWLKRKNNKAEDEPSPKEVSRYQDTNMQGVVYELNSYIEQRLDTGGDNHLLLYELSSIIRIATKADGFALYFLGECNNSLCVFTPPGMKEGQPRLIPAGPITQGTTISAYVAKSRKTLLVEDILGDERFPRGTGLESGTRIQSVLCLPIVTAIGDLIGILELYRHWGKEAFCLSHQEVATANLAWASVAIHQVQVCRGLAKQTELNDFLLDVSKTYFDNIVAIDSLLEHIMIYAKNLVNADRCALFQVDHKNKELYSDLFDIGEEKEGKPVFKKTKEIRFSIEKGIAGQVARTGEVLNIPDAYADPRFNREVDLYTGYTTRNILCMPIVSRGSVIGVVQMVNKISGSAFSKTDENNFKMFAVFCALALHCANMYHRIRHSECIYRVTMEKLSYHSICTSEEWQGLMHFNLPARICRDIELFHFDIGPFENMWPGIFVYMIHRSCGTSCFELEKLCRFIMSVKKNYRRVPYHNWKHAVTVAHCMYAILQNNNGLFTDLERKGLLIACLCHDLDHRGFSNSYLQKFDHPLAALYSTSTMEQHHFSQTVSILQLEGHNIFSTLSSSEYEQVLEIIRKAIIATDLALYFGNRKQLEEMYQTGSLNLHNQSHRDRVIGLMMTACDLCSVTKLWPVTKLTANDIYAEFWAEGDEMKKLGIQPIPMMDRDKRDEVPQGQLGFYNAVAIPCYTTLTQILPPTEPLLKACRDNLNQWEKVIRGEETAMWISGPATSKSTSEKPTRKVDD
Description: Phosphodiesterase isoenzyme 10 (PDE10) activity was determined in preparations of rat, pig and guinea pig striatum respectively. Striatum from male Wistar rats (180-200 g), male hybrid pigs (150 kg) and male guinea pigs (CRL (HA), 500 g) respectively were collected and frozen at −70° C.
For the enzymatic testing of PDE10 activity 0.5 g of the isolated and frozen striatum was homogenised in 10 ml 50 mM Tris/Mg-buffer at 4° C. and centrifuged for one hour at 100000 g.
Nonspecific activity was tested without the enzyme. […] For determination of IC50 values the Hill-plot, 2-parameter-model, was used.

[2] = target: T2, PDE10 from pig striatum (Sus scrofa, UniProt A0A287B941)
Description: (§1) For the enzymatic testing of PDE10 activity 0.5 g of the isolated and frozen striatum was homogenised in 10 ml 50 mM Tris/Mg-buffer at 4° C. and centrifuged for one hour at 100000 g. The supernatant is called the cytosolic fraction and was removed and stored on ice. The pellet was resuspended in the same buffer, but containing 1% Triton and incubated for 45 min at 4° C. Both fractions were independently applied onto a 5 ml Hi Trap™ QHP column at the Äkta-FPLC. After washing the columns the bound PDE protein was eluted with an increasing sodium chloride gradient (0 mM-500 mM sodium chloride) in 50 mM Tris/Mg-buffer at 4° C. for the cytosolic fraction and in the presence of 1% Triton for the membrane fraction. […] The fractions with PDE10-activity were pooled and frozen in aliquots until use at −20° C.
(§2) PDE10 activity was determined in a one step procedure in microtiterplates. […] Nonspecific activity was tested without the enzyme. The reaction was initiated by addition of the substrate solution and was carried out at 37° C. for 30 minutes. Enzymatic activity was stopped by addition of 25 μl YSi—SPA-beads (Amersham-Pharmacia). One hour later the mixture was measured in a liquid scintillation counter for microtiterplates (Microbeta Trilux). To pipette the incubation mixture a robot Biomek (Fa. Beckman) is used. […] For determination of IC50 values the Hill-plot, 2-parameter-model, was used.

[3] = target: T2, PDE10 from pig striatum; assay: Inhibition of PDE10 from pig striatum; conditions: read-out: Km value of the substrate for PDE10 from pig striatum
Description: as §1, §2

[4] = test system: MK-801-induced hyperactivity and stereotyped sniffing; assay: MK-801-induced hyperactivity and stereotyped sniffing, animal model of psychosis; format: in vivo, rat; conditions: female Wistar rats, p.o. 30 min prior to test, MK-801 0.1 mg/kg i.p.; for Dose from which MK-801-induced hyperactivity is significantly reversed: activity recorded 1 h; for Dose from which MK-801-induced stereotyped sniffing is significantly reversed: sniffing scored 1 h
Description: Female Wistar rats (Crl: (WI) BR, Charles River, Sulzfeld, Germany) weighing 150 to 180 g were used for the MK-801-induced psychosis. Animals were housed under standard conditions in groups of five on a 12 h light/dark cycle (light on at 0600 h) with ad libitum access to food (Pellets, ssniff M/R 15, Spezialdiät GmbH, Soest/Westfalen) and water.
MK-801 (dizocilpine, MW 337.37) was obtained by Tocris, distributed by Biotrend Chemikalien GmbH, Köln, Germany.
Hydroxyethylcellulose was solved in distilled water.
MK-801 was dissolved in saline so that an administration volume of 0.5 ml/100 g was reached. The suspensions and solution were placed on a magnetic stirrer before and during dosing procedures.
The behaviour induced by the NMDA antagonist MK-801 is generally accepted as a rat model of psychosis. MK-801 induces stereotyped sniffing and hyperactivity in rats after intraperitoneal administration.
Locomotor activity of the rats was recorded by the MotiTest Apparatus (TSE, Bad Homburg, Germany). The test area consisted of a squared arena (45×45 cm) with protective plexiglass walls (20 cm of height) where rats could freely move. Horizontal movements were recorded by 32 infrared photocells arranged along the bottom of each wall of the arena. Activity [sec] was measured by the computer program “ActiMot” (TSE, Bad Homburg, Germany).
Stereotyped sniffing was scored by the experimenter every five minutes for one hour (12 intervals) according to the method described by Andiné et al. (1999). The scores of the 12 intervals were summed up at the end of the experiment.
The day of experiment the female rats were placed in the laboratory and received the test compound or vehicle at the appropriate time prior to test. MK-801 0.1 mg/kg was intraperitoneally administered 10 minutes prior to test.
At the beginning of the test the rats were placed in the centre of the squared arena of the MotiTest apparatus. Behaviour of the rats was recorded for one hour. After each run animals were removed and the boxes thoroughly cleaned and dried.
Results were analysed by one way analysis of variance (ANOVA). Tukey test was used for individual comparison. P<0.05 was regarded as significant.
MK-801 at 0.1 mg/kg i.p. was administered 10 min before testing. […] Activity and stereotyped sniffing was recorded for 1 h. Co=control without MK-801 stimulation, Cs=control with MK-801 stimulation. Significant to MK-801 stimulated control (=Cs): * p<0.05, *** p<0.001.

Compound | melting point | also measured
COc1ccc(Cc2nccc3cc(OC)c(OC)cc23)cc1OC [Papaverine, reference compound] |  | pIC50 [1]: 6.85
CCN1CC(C)=C(NCc2ccccc2)C2=C1N1CN(OC)C=C1C=N2 [Example 21, 4-(N-benzyl-amino)-1-ethyl-8-methoxy-3-methyl-imidazo[1,5-a]pyrido[3,2-e]pyrazine] | 127 to 128 °C | 
8-methoxy-3-methyl-4-piperidino-1-propyl-imidazo[1,5-a]pyrido[3,2-e]pyrazine [Example 27] |  | pIC50 [2]: 6.52
COc1ccc2nc(Cl)c3cnc(C(C)C)n3c2n1 [Intermediate A14] |  | pIC50 ([1]; rat striatum preparation, 0.1 μM [3H]-cAMP, 37° C., 30 minutes, read-out: Inhibition of PDE10 from rat IC50): 6.63
CCN1CC(C)=C(N(C(C)=O)C(C)=O)C2=C1N1CN(OC)C=C1C=N2 [Example 41, 4-(N,N-diacetyl-amino)-1-ethyl-8-methoxy-3-methyl-imidazo[1,5-a]pyrido[3,2-e]pyrazine] | 135 to 136 °C | 
8-methoxy-3-methyl-1-propyl-4-pyrrolidino-imidazo[1,5-a]pyrido[3,2-e]pyrazine [Example 26] |  | pIC50 [2]: 6.86
CCCN1CC(C)=C(NC)C2=C1N1CN(OC)C=C1C=N2 [Example 16, 4-(N-methyl-amino)-8-methoxy-3-methyl-1-propyl-imidazo[1,5-a]pyrido[3,2-e]pyrazine] | 111 to 113 °C | 
CCN1CC(C)=C(N2CCN(c3ccccc3)CC2)C2=C1N1CN(OC)C=C1C=N2 | 224 to 227 °C | 
CCCN1CC(C)=C(N(C(C)=O)C(C)=O)C2=C1N1CN(OC)C=C1C=N2 [Example 39, 4-(N,N-diacetyl-amino)-8-methoxy-3-methyl-1-propyl-imidazo[1,5-a]pyrido[3,2-e]pyrazine] | 135 to 138 °C | 
CCCN1CC(C)=C(n2ccnn2)C2=C1N1CN(OC)C=C1C=N2 [Example 32, 8-methoxy-3-methyl-1-propyl-4-(1,2,3-triazol-1-yl)-imidazo[1,5-a]pyrido[3,2-e]pyrazine] | 218 to 220 °C | 
8-methoxy-3-methyl-1-propyl-4-(pyrazol-1-yl)-imidazo[1,5-a]pyrido[3,2-e]pyrazine hydro chloride [Example 30] |  | pIC50 [2]: 6.81
Nc1nc2c(ncn2[C@@H]2O[C@@H]3COP(=O)(O)O[C@H]3[C@H]2O)c(=O)[nH]1 [cGMP] |  | Km [3]: 2.2 µM; Km ([1]; substrate Km, rat striatum): 1.8 µM
4-amino-8-methoxy-3-methyl-1-propyl-imidazo[1,5-a]pyrido[3,2-e]pyrazine [Example 1] |  | Dose from which MK-801-induced hyperactivity is significantly reversed [4]: ≥ 10 mg/kg; Dose from which MK-801-induced stereotyped sniffing is significantly reversed [4]: ≥ 10 mg/kg
CCCN1CC(C)=C(NCC)C2=C1N1CN(OC)C=C1C=N2 [Example 17, 4-(N-ethyl-amino)-8-methoxy-3-methyl-1-propyl-imidazo[1,5-a]pyrido[3,2-e]pyrazine] | 140 to 142 °C | 
CCCN1CC(C)=C(NC(C)=O)C2=C1N1CN(OC)C=C1C=N2 [Example 38, 4-(N-acetyl-amino)-8-methoxy-3-methyl-1-propyl-imidazo[1,5-a]pyrido[3,2-e]pyrazine] | 210 to 213 °C | 
CCCN1CC(C)=C(N(C)C)C2=C1N1CN(OC)C=C1C=N2 [Example 19, 4-(N,N-dimethyl-amino)-8-methoxy-3-methyl-1-propyl-imidazo[1,5-a]pyrido[3,2-e]pyrazine] | 93 to 95 °C | 
4-amino-1-(2-chloro-phenyl)-8-methoxy-3-methyl-imidazo[1,5-a]pyrido[3,2-e]pyrazine [Example 11] |  | Dose from which MK-801-induced hyperactivity is significantly reversed [4]: ≥ 0.5 mg/kg; Dose from which MK-801-induced stereotyped sniffing is significantly reversed [4]: ≥ 0.5 mg/kg
8-methoxy-3-methyl-4-(2-methyl-imidazol-1-yl)-1-propyl-imidazo[1,5-a]pyrido[3,2-e]pyrazine [Example 34] |  | pIC50 [2]: 6.40
CCN1CC(C)=C(NC2CCCC2)C2=C1N1CN(OC)C=C1C=N2 [Example 22, 4-(N-cyclopentyl-amino)-1-ethyl-8-methoxy-3-methyl-imidazo[1,5-a]pyrido[3,2-e]pyrazine] | 93 to 95 °C | 
8-methoxy-3-methyl-1-propyl-4-(1,2,4-triazol-1-yl)-imidazo[1,5-a]pyrido[3,2-e]pyrazine [Example 33] |  | pIC50 [2]: 7.60
CON1C=C2C=NC3=C(N(CCC(F)(F)F)CC(C)=C3N)N2C1 [Example 8, 4-amino-8-methoxy-3-methyl-1-(3,3,3-trifluoropropyl)-imidazo[1,5-a]pyrido[3,2-e]pyrazine] | 273 to 276 °C | 
CCN1CC(C)=C(N2CCOCC2)C2=C1N1CN(OC)C=C1C=N2 [Example 24, 1-ethyl-8-methoxy-3-methyl-4-morpholino-imidazo[1,5-a]pyrido[3,2-e]pyrazine] | 132 to 133 °C | 
CCCCNC1=C(C)CN(CC)C2=C1N=CC1=CN(OC)CN12 [Example 20, 4-(N-butyl-amino)-1-ethyl-8-methoxy-3-methyl-imidazo[1,5-a]pyrido[3,2-e]pyrazine] | 62 to 65 °C | 
CCCN1CC(C)=C(NC2CCCC2)C2=C1N1CN(OC)C=C1C=N2 [Example 23, 4-(N-cyclopentyl-amino)-8-methoxy-3-methyl-1-propyl-imidazo[1,5-a]pyrido[3,2-e]pyrazine] | 77 to 80 °C | 
CON1C=C2C=Nc3c(ncc(-c4ccccc4)c3N)N2C1 [Example 15, 4-amino-8-methoxy-3-phenyl-imidazo[1,5-a]pyrido[3,2-e]pyrazine] | 252 to 253 °C | 
